Like-named read-outs stand apart in the source and are kept apart here.
Tests used:
Type in all cases: cell-based
OCI-AML-3 cells = experiment: Killing of AML3 acute myeloid leukemia cells in culture (colony assay); settings: Homo sapiens, colonies >20 cells scored at 5-6 days, methylcellulose
Protocol: OCI-AML-3 cells are plated in 35 mm petri dishes (Nunc, Gibco) in 1 mL volumes at a density of 3.3×10^3 cells/mL, in the absence of exogenous growth factors, containing alpha MEM plus 20% FCS (Cansera, Rexdale Ont.), and 0.9% (vol/vol) methylcellulose (Fluka, Switzerland) and various concentrations of test compounds. Cell cultures are incubated in a humidified atmosphere at 37° C. with 5% CO2. Colonies containing more than 20 cells are scored, using an inverted microscope, at 5-6 days. Results see Tables 4 and 8.

NBM (BFU-E) = experiment: Effect upon normal bone marrow differentiation in culture (CFU-GEMM assay, BFU-E); settings: BFU-E colonies
Text: A CFU-GEMM assay may be performed according to Fauser and Messner (1978, Blood, 52(6) 143-8) and Messner and Fausser (1980, Blut, 41(5) 327-33).

Z119 cells = experiment: Killing of Philadelphia positive Z119 acute lymphoblastic leukemia cells in culture (colony assay); settings: 168 h, Z119 Ph+ ALL cells, colonies >20 cells counted at 7 days or earlier, methylcellulose, read-out: ALL (Z 119) IC 50
Protocol: Z119 cells are plated in 1 mL volumes at a density of 1×10^4 cells/mL, in the absence of exogenous growth factors, into 35 mm petri dishes (Nunc, Gibco) containing IMDM (OCI, Toronto) plus 20% FCS (Cansera Rexdale, ON) in 0.9% (vol/vol) methylcellulose (Fluka, Switzerland) with various concentrations of test compounds. Cultures are set at 37° C., 5% CO2 in a humidified atmosphere. Colonies consisting of more than 20 cells are counted at 7 days or earlier using an inverted microscope. Results see Tables 4 and 8.

[1] = Table 4, read-out: AML (OCI AML-3) IC 50
[2] = Table 4, read-out: NBM (BFU-E) IC 50
[3] = Table 8, read-out: AML (OCI AML-3) IC 50
[4] = Table 8, read-out: NBM (BFU-E) IC 50

Structure (SMILES)	IC50 (OCI-AML-3 cells; [1]) [nM]	IC50 (NBM (BFU-E); [2]) [nM]	IC50 (Z119 cells; Table 4) [nM]	IC50 (OCI-AML-3 cells; [3]) [nM]	IC50 (NBM (BFU-E); [4]) [nM]	IC50 (Z119 cells; Table 8) [nM]
COCCOCCOCCOC(=O)/C(C#N)=C/C=C/c1ccc(O)c(O)c1 [CRIV-42, 2-Cyano-5-(3,4-dihydroxyphenyl)-penta-2E,4E-dienoic acid 2-[2-(2-methoxyethoxy)ethoxy]ethyl ester]	90	≥ 10000	≥ 500	–	–	–
COc1cc(/C=C/C=C(\C#N)C(=O)OCc2ccccc2)cc(OC)c1O [CRIX-38, 2-Cyano-5-(4-hydroxy-3,5-dimethoxyphenyl)-penta-2E,4E-dienoic acid benzyl ester]	> 500	≤ 10000	> 1000	–	–	–
N#C/C(=C\C=C\c1ccc(O)c(O)c1)C(=O)OCc1ccccc1 [CRIX-39, 2-Cyano-5-(3,4-dihydroxyphenyl)-penta-2E,4E-dienoic acid benzyl ester]	90	8000	≥ 600	–	–	–
N#C/C(=C\C=C\c1ccc(O)c(O)c1)S(=O)(=O)c1ccccc1 [CRVIII-33, 2-Benzenesulfonyl-5-(3,4-dihydroxyphenyl)-penta-2E,4E-dienenitrile]	–	–	–	> 500	12000	≥ 550
COc1cc(/C=C/C=C(\C#N)S(=O)(=O)c2ccccc2)cc(OC)c1O [CRVIII-34, 2-Benzenesulfonyl-5-(4-hydroxy-3,5-dimethoxyphenyl)-penta-2E,4E-dienenitrile]	–	–	–	> 500	≤ 10000	> 1000
N#C/C(=C\C=C\c1ccc([N+](=O)[O-])cc1)S(=O)(=O)c1ccccc1 [CRVIII-35, 2-Benzenesulfonyl-5-(4-nitrophenyl)-penta-2E,4E-dienenitrile]	–	–	–	> 500	> 5000	> 1000
N#C/C(=C\C=C\c1ccc(O)c(O)c1)S(=O)(=O)c1ccccn1 [CRVIII-50, 5-(3,4-Dihydroxyphenyl)-2-(pyridine-2-sulfonyl)-penta-2E,4E-dienenitrile]	–	–	–	≥ 250	≤ 5000	≥ 170
N#C/C(=C\C=C\c1ccc(O)c(O)c1)S(=O)(=O)c1ccc(Cl)cc1 [CRVIII-51, 2-(4-Chlorobenzenesulfonyl)-5-(3,4-dihydroxyphenyl)-penta-2E,4E-dienenitrile]	–	–	–	250 to 500	≥ 5000	230
Cc1ccc(S(=O)(=O)/C(C#N)=C/C=C/c2ccc(O)c(O)c2)cc1 [CRVIII-52, 5-(3,4-Dihydroxyphenyl)-2-(toluene-4-sulfonyl)-penta-2E,4E-dienenitrile]	–	–	–	250 to 500	≤ 10000	250 to 500
CS(=O)(=O)/C(C#N)=C/C=C/c1ccc(O)c(O)c1 [CRVIII-53, 5-(3,4-Dihydroxyphenyl)-2-methanesulfonyl-penta-2E,4E-dienenitrile]	–	–	–	250 to 500	≤ 10000	450
COCCOCCOCCOC(=O)/C(C#N)=C/C=C/c1cc(OC)c(O)c(OC)c1 [GRIV-46, 2-Cyano-5-(4-hydroxy-3,5-dimethoxyphenyl)-penta-2E,4E-dienoic acid 2-[2-(2-methoxyethoxy)ethoxy]ethyl ester]	≥ 500	≥ 10000	> 500	–	–	–

Source: US20070197660A1, “Compounds for modulating cell proliferation” (The Hospital for Sick Children, priority 2003, published 2007)
